Experimental data: US20250361267A1, “CHIMERIC COMPOUND FOR DEGRADING CYCLOPHILIN A, PREPARATION METHOD THEREFOR, AND USE THEREOF” (INSTITUTE OF MICROBIOLOGY, CHINESE ACADEMY OF SCIENCES, priority 2022, published 2025)

Assays:
[1] = system: A549 cells; experiment: Migration and infiltration of lung cancer cells, Transwell chambers; type: cell-based
Method: (1) A549 cells in the logarithmic phase were collected, the concentration of the cell suspension was adjusted, and 100 μL was added per well. The cells to be tested were plated to a density of 10^3-10^4 cells/well and incubated at 37° C. under 5% CO2 until the bottom of the wells was covered by a single layer of cells.
(§1) (2) Different concentrations of the compound represented by Formula I were added: 0, 10, 10^2, 10^3, 10^4 and 10^5 nM/well, with 3 replicate wells set, and incubated at 37° C. under 5% CO2 for 12 hours.
The upper chamber of a 24-well cell culture insert ([…] pore size) was coated (no migration) or (invasive) with a matrix (1 mg/mL) and dried at 37° C. for 30 min.
(3) A549/WT and A549/CypA-cells were trypsinized, washed and suspended in serum-free DMEM after treatment with 20 ng/ml TGF-β for 48 h.
(1) DMEM containing 10% fetal bovine serum was added to the lower chamber per approximately 5×10^4 cells inserted in the upper chamber.
(2) After incubation for 6 h (migration) or 24 h (invasion), non-migrating or […] cells residing on the upper part of the insert membrane were removed with a cotton swab.
(3) The cells that migrated to the underside of the membrane were fixed and stained with 2% crystal violet in ethanol.
(4) The stained cells were observed and counted under a Japan Olympus CKX41 microscope.

[2] = system: IBV-induced pneumonia; set-up: species or system C57BL/6 mice; settings: mouse, in vivo
[3] = system: IL-1B, TNF-α, IL-6 and IFN-γ; set-up: species or system C57BL/6 mice; settings: mouse, in vivo
[4] = target: CypA (Mus musculus, UniProt P17742); type: in vivo, C57BL/6 mice; settings: IBV-infected mice, 10 mg/kg/day, 7 days after infection
[5] = target: T1, CypA (Homo sapiens, UniProt P62937); experiment: CypA degradation in A549 cells by Western Blot; type: cell-based; settings: A549 cell line
T1 construct: A549 cells in the logarithmic phase were collected; endogenous in cells; host or cells: A549
Method: (§2) (1) A549 cells in the logarithmic phase were collected, the concentration of the cell suspension was adjusted, and 100 μL was added per well. The cells to be tested were plated to a density of 10^3 to 10^4 cells/well and incubated at 37° C. under 5% CO2 until the bottom of the wells was covered by a single layer of cells.
as §1
(1) The treated cells were scraped off from the culture medium, suspended thoroughly, and then collected by centrifugation at 300 g for 5 minutes. After washing with PBS once, the PBS was discarded.
(2) 100 μL of 2× Loading Buffer was added to each sample, shaken thoroughly to mix well, denatured at 100° C. for 5 minutes, and stored at −20° C. after mixing well or directly used for Western Blot detection. The Formula of 5× Loading Buffer was as follows: 250 mM Tris-HCl (pH 6.8), 10% (W/V) SDS, 0.5% (W/V) bromophenol blue, 50% (V/V) glycerol, 5% (W/V) β-mercaptoethanol (2-ME). […]
2) Sample preparation: protein samples were prepared according to experimental requirements, centrifuged, mixed well, and loaded into the loading wells of SDS-PAGE gel. The loading volume was adjusted appropriately according to the protein quantification results. […]

[6] = system: A549 cells; experiment: Effect on A549 cell activity by CCK-8 method; type: cell-based; settings: 0 to 10^5 nM, 12 hours
Method: as §2, §1
(1) 10 μL CCK-8 reagent was added to the above cells in each well and reacted for 2 h.
(2) The incubation was terminated, and the culture medium in the wells was carefully aspirated.
(3) The absorbance of each well was measured using a microplate reader with a wavelength of 450 nm.
(4) The absorbance ratio between the experimental group and the control group was calculated as follows: Cell viability=(Absorbance of the experimental group−Blank control)+ (Absorbance of the control group−Blank control)×100%.

[7] = system: rheumatoid arthritis; experiment: Rat arthritis model (Freund complete adjuvant); type: in vivo, Lewis rats; settings: rats, 10 mg/kg tail vein three times/week
Method: The BCG vaccine was inactivated in a water bath at 80° C. for 1 h, ground thoroughly with incomplete Freund adjuvant, and mixed well to prepare 15 mg/mL Freund complete adjuvant (FCA). Lewis rats were divided into 4 groups: blank group (PBS), untreated group (UT), treatment group 1 (compound) and treatment group 2 (MTX (methotrexate)), with 5 rats in each group and a body weight of […]. Except for the PBS group, rats were intradermally injected with 0.1 mL of FCA in the right hind paw. On day 14 after injection, rats in treatment group 1 (compound) were injected with the compound (10 mg/kg of body weight, dissolved in 100 μL of PBS) through the tail vein three times/week; rats in treatment group 2 (MTX (methotrexate)) were intraperitoneally injected with methotrexate (1.2 mg/kg of body weight) three times/week.
The circumference of the metatarsophalangeal joint was measured. The circumference of the ankle joint of the left hind paw (on the secondary lesion side) of all rats was measured once before modeling, before administration and 3 weeks after administration, respectively, and the percentage of joint swelling was calculated.
The joint index was determined by joint swelling score before administration (Day 0) and 3 weeks after administration. Scoring was carried out based on the redness and swelling degree of the ankle and toe joints of the front and rear limbs of rats and the affected joint index, as follows: 0 for normal; 1 for the redness and swelling of one joint; 2 for the redness and swelling of two or more joints; 3 for severe redness and swelling of the paw below the ankle joint; 4 for the redness and swelling of the entire paw including the ankle joint and inability to bear weight. The limbs were scored separately, and the cumulative sum of the scores was the joint index.
(1) On the day 21 of administration, rats were euthanized after blood collection. […]
(2) Joint synovial proliferation and the degree of sub-synovial inflammation were observed under a light microscope, and synovial cell proliferation was scored.

T1 sequence (P62937 whole entry): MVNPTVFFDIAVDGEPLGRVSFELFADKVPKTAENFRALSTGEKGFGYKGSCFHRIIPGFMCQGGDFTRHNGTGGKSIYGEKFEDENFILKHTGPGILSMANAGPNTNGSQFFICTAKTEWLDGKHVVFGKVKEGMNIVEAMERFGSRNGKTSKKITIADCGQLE
Sequence of CypA (Mus musculus, UniProt P17742) (P17742 whole entry): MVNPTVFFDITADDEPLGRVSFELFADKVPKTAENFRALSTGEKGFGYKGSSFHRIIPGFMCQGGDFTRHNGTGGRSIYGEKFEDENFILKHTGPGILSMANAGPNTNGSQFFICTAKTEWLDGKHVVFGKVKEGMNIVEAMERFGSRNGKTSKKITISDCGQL

SMILES: Cc1ncsc1-c1ccc(C(C)NC(=O)[C@@H]2C[C@@H](O)CN2C(=O)[C@H](NC(=O)COCCCCCOc2cccc(O)c2C(=O)NC(=O)NC2CCCCC2)C(C)(C)C)cc1 (stereo partly drawn) [Formula I]
- infiltration of lung cancer cells ([1]; Transwell with matrix, 24 h): significantly reduce
- migration of lung cancer cells ([1]; Transwell, 6 h): significantly reduce
- lung injury (lung index, pathology, pathological scores) [2]: significantly alleviate lung injury
- expression of IFN-γ in the lung tissue [3]: significantly reduce
- expression of IL-1B in the lung tissue [3]: significantly reduce
- expression of IL-6 in the lung tissue [3]: significantly reduce
- expression of TNF-α in the lung tissue [3]: significantly reduce
- lung inflammation [3]: alleviating lung inflammation
- expression of CypA in mouse lung tissue [4]: significantly reduce
- DC50 ([5]; 12 hours, Western Blot, read-out: half-degradation concentration on CypA): < 100 nM
- degradation effect on the CypA protein ([5]; WB results): clearly observed
- cell viability [6]: above 80%
- joint index of the ankle joint ([7]; 3 weeks after administration): reduce
- joint swelling ([7]; 3 weeks after administration): significantly relieve
- inflammation of the ankle joint (ankle pathological scores) ([7]; day 21, HE staining): alleviate
